Measured values as given in PubChem BioAssay AID1963978 (Molecular Pharmacology Branch, DTP, NCI, 2024).

System: 616215-338-R-J1-PDC spheroids with HUVEC/MSC, viability
Experiment: Anticancer human tumor 616215-338-R-J1-PDC patient-derived colon adenocarcinoma cell line growth inhibition [PI3K]
Conditions: for IC50: curve of first compound; for viability, T/C: stronger effect = lower value
Text: Combinatorial screen of targeted agents with the PI3K inhibitors inavolisib, alpelisib, duvelisib, and copanlisib in multi-cell type tumor spheroids
A high-throughput screen of multi-cell type tumor spheroids was designed to identify active combinations of targeted small molecules and PI3K pathway inhibitors. Complex spheroids include a stromal component modeled by human endothelial cells (HUVEC) and fibroblasts modeled by human mesenchymal stem cells (MSCs). The concentration ranges selected for each drug and investigational agent were based upon clinically achievable concentrations if the clinical Cmax of the agent was known.
Compounds. The drugs and investigational agents: inavolisib (NSC800729), alpelisib (NSC765974), duvelisib (NSC772469), copanlisib (NSC816437), ipatasertib (NSC767898), afuresertib (NSC778305), talazoparib (NSC767125), sapanisertib (NSC764658), selumetinib (NSC741078), tovorafenib (DAY101, NSC766906), vemurafenib (NSC761431), ravoxertinib (NSC781343), sotorasib (NSC818433), MRTX1133 (NSC 836407), abemaciclib (NSC 768073), palbociclib (NSC758247), venetoclax (NSC 766270), SY5609 (NSC837396), enzalutamide (NSC755605), and darolutamide (NSC825331), were obtained from the National Cancer Institute (NCI) Developmental Therapeutics Program Chemical Repository. The FDA-approved anticancer drug set is available from the NCI Developmental Therapeutics Program. […] The stock solutions were prepared in dimethyl sulfoxide (DMSO, Sigma-Aldrich, St. Louis, MO, cat. D2650) at 800-fold the tested concentration and stored at -70 degrees C prior to their use. All drugs and investigational agents were tested over a range starting from a high concentration at or near the clinical Cmax and decreasing in half-log increments. If the clinical Cmax for an agent had not been determined, the highest concentration tested was 10 microM.
Cell Culture. All cells were maintained in an incubator at 37 degrees C and 5% CO2 with 95% humidity. The PDC lines were cultured according to standard operating procedures established by the NCI PDMR (https://pdmr.cancer.gov/sops/default.htm). All PDCs were thawed and cultured in Matrigel-coated flasks prepared with a working solution of 1X Ham's F-12 nutrient mix, without supplementation (Invitrogen, Waltham, MA, cat. 11765054), 100 U/mL penicillin-streptomycin (Invitrogen, cat. 15140122), and 2.5% Matrigel (Corning Inc., Corning, NY, cat. 354248) for the first three passages. The 354836-022-R-J1-PDC, 475296-252-R-J1-PDC, and 997726-040-R-J2-PDC lines were cultured in 6A media, which includes advanced DMEM/F-12 (Thermo Fisher Scientific, cat. 12634028), 10 mM HEPES (Thermo Fisher Scientific, cat. 15630080), 1X GlutaMAX supplement (Thermo Fisher Scientific, cat. 35050061), 0.1 mg/mL primocin (InvivoGen, San Diego, CA, cat. ant-pm-2), 10% defined fetal bovine serum, heat inactivated (HyClone Laboratories Inc., Logan, UT, cat. SH30070.03HI), 50% L-WRN conditioned media (ATCC, cat. CRL-3276), 1.25 mM N-Acetyl-L-cysteine (Sigma-Aldrich, cat. A9165), 10 mM nicotinamide (Sigma-Aldrich, cat. N0636), 1X B-27 supplement (Thermo Fisher Scientific, cat. 17504044), 1X N-2 supplement (Thermo Fisher Scientific, cat. 17502048), and 10 microM Y-27632 dihydrochloride (Tocris Bioscience, Bristol, United Kingdom, cat. 1254). The 624824-186-R-J2-PDC line was cultured in 6C/Colon 1B media, which includes all 6A media components plus 50 ng/mL human EGF recombinant protein (Thermo Fisher Scientific, cat. PHG0311). […]

[1] = second compound 0.0316 µM, first compound 0.0316 µM
[2] = second compound 0.0316 µM, first compound 0.1 µM
[3] = second compound 0.0316 µM, first compound 0.316 µM
[4] = second compound 0.0316 µM, first compound 1 µM
[5] = second compound 0.0316 µM, first compound 3.16 µM
[6] = second compound 0.0316 µM, first compound 10 µM
[7] = second compound 0.1 µM, first compound 0.0316 µM
[8] = second compound 0.1 µM, first compound 0.1 µM
[9] = second compound 0.1 µM, first compound 0.316 µM
[10] = second compound 0.1 µM, first compound 1 µM
[11] = second compound 0.1 µM, first compound 3.16 µM
[12] = second compound 0.1 µM, first compound 10 µM
[13] = second compound 0.316 µM, first compound 0.0316 µM
[14] = second compound 0.316 µM, first compound 0.1 µM
[15] = second compound 0.316 µM, first compound 0.316 µM
[16] = second compound 0.316 µM, first compound 1 µM
[17] = second compound 0.316 µM, first compound 3.16 µM
[18] = second compound 0.316 µM, first compound 10 µM
[19] = second compound 1 µM, first compound 0.0316 µM
[20] = second compound 1 µM, first compound 0.1 µM
[21] = second compound 1 µM, first compound 0.316 µM
[22] = second compound 1 µM, first compound 1 µM
[23] = second compound 1 µM, first compound 3.16 µM
[24] = second compound 1 µM, first compound 10 µM
[25] = second compound 3.16 µM, first compound 0.0316 µM
[26] = second compound 3.16 µM, first compound 0.1 µM
[27] = second compound 3.16 µM, first compound 0.316 µM
[28] = second compound 3.16 µM, first compound 1 µM
[29] = second compound 3.16 µM, first compound 3.16 µM
[30] = second compound 3.16 µM, first compound 10 µM
[31] = second compound 10 µM, first compound 0.0316 µM
[32] = second compound 10 µM, first compound 0.1 µM
[33] = second compound 10 µM, first compound 0.316 µM
[34] = second compound 10 µM, first compound 1 µM
[35] = second compound 10 µM, first compound 3.16 µM
[36] = second compound 10 µM, first compound 10 µM
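Note: spheroids exposed to agents for seven days before the viability read.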

CCCS(=O)(=O)Nc1ccc(F)c(C(=O)c2c[nH]c3ncc(-c4ccc(Cl)cc4)cc23)c1F + Cc1nc(NC(=O)N2CCCC2C(N)=O)sc1-c1ccnc(C(C)(C)C(F)(F)F)c1 was tested, and the IC50 (second compound 0.0316 µM) was 4.02 µM, the IC50 (second compound 0.1 µM) was 4.28 µM and the IC50 (second compound 0.316 µM) was 4.25 µM. It also gave an IC50 (second compound 1 µM) of 4.51 µM, an IC50 (second compound 3.16 µM) of 3.71 µM and an IC50 (second compound 10 µM) of 2.99 µM. For the same compound, the viability, T/C [1] was 108%, the viability, T/C [2] was 94% and the viability, T/C [3] was 94.7%. It also gave a viability, T/C [4] of 81.2%, a viability, T/C [5] of 66.6% and a viability, T/C [6] of 3.55%. The viability, T/C [7] was 90.6%, the viability, T/C [8] was 92.5% and the viability, T/C [9] was 84.8%. It also gave a viability, T/C [10] of 91.2%, a viability, T/C [11] of 66.2% and a viability, T/C [12] of 4.03%. It also gave a viability, T/C [13] of 95.3%, a viability, T/C [14] of 90.1% and a viability, T/C [15] of 90.3%. The viability, T/C [16] was 85%, the viability, T/C [17] was 65.5% and the viability, T/C [18] was 5.89%. The viability, T/C [19] was 95.9%, the viability, T/C [20] was 92.2% and the viability, T/C [21] was 93.5%. It also gave a viability, T/C [22] of 86.1%, a viability, T/C [23] of 69.9% and a viability, T/C [24] of 6.45%. The viability, T/C [25] was 96.8%, the viability, T/C [26] was 86.8% and the viability, T/C [27] was 91.9%. For the same compound, the viability, T/C [28] was 82.3%, the viability, T/C [29] was 57% and the viability, T/C [30] was 5.97%. It also gave a viability, T/C [31] of 91.7%, a viability, T/C [32] of 86.4% and a viability, T/C [33] of 87.4%. For the same compound, the viability, T/C [34] was 87.8%, the viability, T/C [35] was 48% and the viability, T/C [36] was 4.82%.
In the case of CCCS(=O)(=O)Nc1ccc(F)c(C(=O)c2c[nH]c3ncc(-c4ccc(Cl)cc4)cc23)c1F + CC(Nc1ncnc2nc[nH]c12)c1cc2cccc(Cl)c2c(=O)n1-c1ccccc1, the IC50 (second compound 0.0316 µM) is reported as 4.58 µM, the IC50 (second compound 0.1 µM) is reported as 4.06 µM and the IC50 (second compound 0.316 µM) is reported as 4.39 µM. It also gave an IC50 (second compound 1 µM) of 4.67 µM, an IC50 (second compound 3.16 µM) of 4.29 µM and an IC50 (second compound 10 µM) of 4.69 µM. The viability, T/C [1] was 102%, the viability, T/C [2] was 93.2% and the viability, T/C [3] was 106%. It also gave a viability, T/C [4] of 93.6%, a viability, T/C [5] of 73.2% and a viability, T/C [6] of 1.56%. It also gave a viability, T/C [7] of 110%, a viability, T/C [8] of 102% and a viability, T/C [9] of 106%. The viability, T/C [10] was 96.4%, the viability, T/C [11] was 63.4% and the viability, T/C [12] was 1.25%. The viability, T/C [13] was 105%, the viability, T/C [14] was 113% and the viability, T/C [15] was 97.7%. The viability, T/C [16] was 101%, the viability, T/C [17] was 68.9% and the viability, T/C [18] was 1.67%. For the same compound, the viability, T/C [19] was 107%, the viability, T/C [20] was 105% and the viability, T/C [21] was 93.8%. It also gave a viability, T/C [22] of 101%, a viability, T/C [23] of 74.3% and a viability, T/C [24] of 2.71%. It also gave a viability, T/C [25] of 100%, a viability, T/C [26] of 115% and a viability, T/C [27] of 102%. For the same compound, the viability, T/C [28] was 107%, the viability, T/C [29] was 67.4% and the viability, T/C [30] was 1.53%. The viability, T/C [31] was 115%, the viability, T/C [32] was 105% and the viability, T/C [33] was 113%. For the same compound, the viability, T/C [34] was 104%, the viability, T/C [35] was 74.7% and the viability, T/C [36] was 3%.
In the case of CC(=O)c1c(C)c2cnc(Nc3ccc(N4CCNCC4)cn3)nc2n(C2CCCC2)c1=O + CC(Nc1ccc2c(c1)OCCn1cc(N3C(=O)OCC3C(F)F)nc1-2)C(N)=O, the IC50 (second compound 0.00316 µM) is reported as > 0.1 µM, the IC50 (second compound 0.01 µM) is reported as > 0.1 µM and the IC50 (second compound 0.0316 µM) is reported as > 0.1 µM. For the same compound, the IC50 (second compound 0.1 µM) was > 0.1 µM, the IC50 (second compound 0.316 µM) was > 0.1 µM and the IC50 (second compound 1 µM) was > 0.1 µM. It also gave a viability, T/C (second compound 0.00316 µM, first compound 0.000316 µM) of 87.7%, a viability, T/C (second compound 0.00316 µM, first compound 0.001 µM) of 104% and a viability, T/C (second compound 0.00316 µM, first compound 0.00316 µM) of 93%. It also gave a viability, T/C (second compound 0.00316 µM, first compound 0.01 µM) of 99.4%, a viability, T/C (second compound 0.00316 µM, first compound 0.0316 µM) of 94.6% and a viability, T/C (second compound 0.00316 µM, first compound 0.1 µM) of 95.9%. It also gave a viability, T/C (second compound 0.01 µM, first compound 0.000316 µM) of 99.6%, a viability, T/C (second compound 0.01 µM, first compound 0.001 µM) of 100% and a viability, T/C (second compound 0.01 µM, first compound 0.00316 µM) of 107%. The viability, T/C (second compound 0.01 µM, first compound 0.01 µM) was 90.2%, the viability, T/C (second compound 0.01 µM, first compound 0.0316 µM) was 99.5% and the viability, T/C (second compound 0.01 µM, first compound 0.1 µM) was 96.5%. The viability, T/C (second compound 0.0316 µM, first compound 0.000316 µM) was 93.2%, the viability, T/C (second compound 0.0316 µM, first compound 0.001 µM) was 102% and the viability, T/C (second compound 0.0316 µM, first compound 0.00316 µM) was 98.2%. For the same compound, the viability, T/C (second compound 0.0316 µM, first compound 0.01 µM) was 101%, the viability, T/C [1] was 91.5% and the viability, T/C [2] was 107%. It also gave a viability, T/C (second compound 0.1 µM, first compound 0.000316 µM) of 102%, a viability, T/C (second compound 0.1 µM, first compound 0.001 µM) of 99% and a viability, T/C (second compound 0.1 µM, first compound 0.00316 µM) of 92.6%. The viability, T/C (second compound 0.1 µM, first compound 0.01 µM) was 112%, the viability, T/C [7] was 93.8% and the viability, T/C [8] was 101%. The viability, T/C (second compound 0.316 µM, first compound 0.000316 µM) was 106%, the viability, T/C (second compound 0.316 µM, first compound 0.001 µM) was 112% and the viability, T/C (second compound 0.316 µM, first compound 0.00316 µM) was 100%. The viability, T/C (second compound 0.316 µM, first compound 0.01 µM) was 106%, the viability, T/C [13] was 98% and the viability, T/C [14] was 90.2%. For the same compound, the viability, T/C (second compound 1 µM, first compound 0.000316 µM) was 105%, the viability, T/C (second compound 1 µM, first compound 0.001 µM) was 94.7% and the viability, T/C (second compound 1 µM, first compound 0.00316 µM) was 102%. The viability, T/C (second compound 1 µM, first compound 0.01 µM) was 105%, the viability, T/C [19] was 95.1% and the viability, T/C [20] was 81.7%.
